Common to all, as to assay: growth of human tumour cells (NCI), 48 h
Assay [1] relates to HOP-92 NSCLC.
Assay [2] deals with SK-MEL-28 melanoma.
Assay [3] concerns MOLT-4 leukemia.
Assay [4] deals with HOP-62 NSCLC.
Assay [5] deals with M14 melanoma.
Assay [6] deals with SW-620 colon.
Assay [7] has as its system SN12C renal.
Assay [8] concerns U251 CNS.
For assay [9], the system named is ACHN renal.
In assay [10] the test system is NCI-H226 lung.

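Test compounds were applied to cells in 96-well plates for 48 hours at 5 doses. The concentration for 50% growth inhibition is given as GI50. TGI: concentration producing complete growth inhibition.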

Turning to `O=C(OCc1ccc2cccc(O)c2n1)N1CCN(C(=O)c2cc3cc(F)ccc3[nH]2)CC1`, the GI50 in [1] is 0.383 µM; in [2] it was 1.68 µM; in [3] it was 0.334 µM; in assay [4], 1.37 µM; in [5], 1.13 µM; in assay [6] it was 0.42 µM. Also, the GI50 in assay [7] was 1.21 µM; in [8], 1.41 µM; in [9], 0.615 µM. In addition, the TGI in assay [1] turned out to be 1.94 µM; in assay [2], 3.05 µM; in assay [3], 1.37 µM; in assay [4], 3.16 µM; in [5], 2.5 µM; in assay [6] it was 1.91 µM. Moreover, the TGI is 2.49 µM in assay [7], 2.74 µM in assay [8] and 1.92 µM in assay [9].

With `CC(O)C(N=Cc1ccccc1[O-])C(=O)[O-].CC(O)C(N=Cc1ccccc1[O-])C(=O)[O-].[Co+2]` (stereo not given), the GI50 in [1] was 47.7 µM; in assay [2], 31.9 µM; in assay [3] it was 19 µM; in assay [10], 28.6 µM; in [5], > 100 µM; in assay [6], 78.2 µM. For the same molecule, the GI50 in assay [7] and in assay [9] was > 100 µM throughout. Further, the TGI in [1], in assay [2], in [3], in [10], in assay [5] and in assay [6] was > 100 µM in each case. Also, the TGI in [7] and in [9] was > 100 µM in each case.

For the molecule `CCOP(=O)(Cc1ccc(CP(=O)(OCC)OCC)n1C)OCC`, the TGI in assay [1], in assay [2], in [3], in assay [4], in [5] and in assay [6] was > 100 µM each time. In addition, the TGI in [7], in [8] and in assay [9] was > 100 µM in each case.

Take `Oc1[nH]c2ccccc2c1N=Nc1ccccc1Cl`: the TGI in assay [2] was > 100 µM; in assay [3] it was > 100 µM; in assay [4] it was 40.6 µM; in [10], > 100 µM; in assay [5], > 100 µM; in assay [6], > 100 µM. The values for the TGI in [7], in assay [8] and in [9] were 97.7 µM, 47.4 µM and 15.2 µM, respectively.

Turning to `Ic1ccc(Nc2nc3nonc3nc2Nc2ccc(I)cc2)cc1`, the GI50 in assay [1] was 0.0408 µM; in [3], 0.256 µM; in assay [4], 0.302 µM; in assay [6], 0.296 µM; in assay [8], 0.324 µM; in assay [9], 0.269 µM. The TGI in assay [1] was 0.458 µM; in assay [3], 1.06 µM; in assay [4], 0.961 µM; in assay [6] it was > 100 µM; in assay [8] it was > 100 µM; in assay [9], > 100 µM.

For the molecule `COC(=O)C1=C(C)N(NC(=O)c2ccccc2)C(C)(O)C12CCOC2=O` (stereo not given), the TGI in assay [2], in [3], in assay [4], in [10], in assay [5] and in assay [6] was > 100 µM in each case. The TGI in assay [7], in [8] and in assay [9] was > 100 µM throughout.

As for `CS(=O)(=O)N/N=C/CN1C(=O)c2ccccc2C1=O`, the TGI in assay [2], in assay [3], in assay [4], in assay [10], in assay [5] and in assay [6] was > 100 µM each time. In addition, the TGI in assay [7], in [8] and in assay [9] was > 100 µM in each case.

For `CC(SC(C)C(=O)N/N=C/c1cccc(Cl)c1)C(=O)N/N=C\c1cccc(Cl)c1` (stereo not given), the GI50 in assay [2] was 15.2 µM; in [3], 11.2 µM; in [4] it was 13.9 µM; in assay [10] it was 17.5 µM; in [5], 14.1 µM; in assay [6], 2.6 µM. The GI50 was 12.1 µM in assay [7], 3.74 µM in [8] and 5.53 µM in assay [9]. Besides, the TGI in assay [2] turned out to be 34.4 µM; in assay [3], 42 µM; in [4] it was 31.4 µM; in assay [10] it was 43.1 µM; in assay [5], 35.5 µM; in assay [6] it was 6.65 µM. The values for the TGI in assay [7], in assay [8] and in assay [9] were 53.9 µM, 15.1 µM and > 100 µM, respectively.

With `Cc1ccc(S(=O)(=O)NCC2CCCCC2=O)cc1` (stereo not given), the TGI in [1] is 97.2 µM; in assay [2], > 100 µM; in assay [3], > 100 µM; in assay [10], > 100 µM; in assay [5], > 100 µM; in assay [6], > 100 µM. Also, the TGI in assay [7] and in assay [8] was > 100 µM in each case.

As to `CC(C)(C)OC(=O)NCC(=O)OCc1ccccc1`, the TGI in assay [1], in assay [2], in assay [3], in assay [4], in [5] and in [6] was > 100 µM in each case. Besides, the TGI in assay [7], in assay [8] and in assay [9] was > 100 µM throughout.

As to `CCN1CCN(c2ccc(Nc3cc(N(C)C(=O)Nc4c(Cl)c(OC)cc(OC)c4Cl)ncn3)cc2)CC1`, the GI50 was 2.28 µM in [1]; 1.87 µM in assay [2]; 1.87 µM in assay [3]; 4.03 µM in assay [4]; 1.45 µM in [5]; 2.42 µM in assay [6]. In addition, the figures for the GI50 in assay [7], in assay [8] and in assay [9] were 2.62 µM, 1.47 µM and 2.18 µM, respectively. In addition, the TGI in [1] is 27.3 µM; in assay [2] it was 3.46 µM; in assay [3] it was 5.8 µM; in assay [4], 15.5 µM; in [5], 3.1 µM; in assay [6], 9.76 µM. Besides, the TGI worked out at 11 µM in [7], 3.71 µM in assay [8] and 13.6 µM in [9].

(Values after PubChem BioAssay (NCI).)
